According to ChEMBL document CHEMBL3044866, “A facile and single pot strategy for the synthesis of novel naphthyridine derivatives under microwave irradiation conditions using ZnCl2 as catalyst, evaluation of AChE inhibitory activity, and molecular modeling studies” (Med Chem Res, 2012):

How the values were obtained:
[1] = biological target: Acetylcholinesterase (Homo sapiens, UniProt P22303); assay: Inhibition of AChE (unknown origin) after 10 min by Ellmans method
[2] = in vitro; settings: human, THLE2 cells
Description: Cytotoxicity against Homo sapiens (human) THLE2 cells assessed as viable cells at 10 uM after 48 hr by MTT assay

[3] = in vitro; settings: human, THLE2 cells; remark: listed apart in the source
Description: Cytotoxicity against Homo sapiens (human) THLE2 cells assessed as viable cells at 1 uM after 48 hr by MTT assay

[4] = Cytotoxicity against Homo sapiens (human) THLE2 cells assessed as cell death at 10 uM after 48 hr by MTT assay; assay type: cell-based; settings: thle-2, 48 h
[5] = in vitro; settings: human, THLE2 cells; remark: listed apart in the source
Description: Cytotoxicity against Homo sapiens (human) THLE2 cells assessed as viable cells at 0.5 uM after 48 hr by MTT assay

Acetylcholinesterase, sequence (P22303 whole entry): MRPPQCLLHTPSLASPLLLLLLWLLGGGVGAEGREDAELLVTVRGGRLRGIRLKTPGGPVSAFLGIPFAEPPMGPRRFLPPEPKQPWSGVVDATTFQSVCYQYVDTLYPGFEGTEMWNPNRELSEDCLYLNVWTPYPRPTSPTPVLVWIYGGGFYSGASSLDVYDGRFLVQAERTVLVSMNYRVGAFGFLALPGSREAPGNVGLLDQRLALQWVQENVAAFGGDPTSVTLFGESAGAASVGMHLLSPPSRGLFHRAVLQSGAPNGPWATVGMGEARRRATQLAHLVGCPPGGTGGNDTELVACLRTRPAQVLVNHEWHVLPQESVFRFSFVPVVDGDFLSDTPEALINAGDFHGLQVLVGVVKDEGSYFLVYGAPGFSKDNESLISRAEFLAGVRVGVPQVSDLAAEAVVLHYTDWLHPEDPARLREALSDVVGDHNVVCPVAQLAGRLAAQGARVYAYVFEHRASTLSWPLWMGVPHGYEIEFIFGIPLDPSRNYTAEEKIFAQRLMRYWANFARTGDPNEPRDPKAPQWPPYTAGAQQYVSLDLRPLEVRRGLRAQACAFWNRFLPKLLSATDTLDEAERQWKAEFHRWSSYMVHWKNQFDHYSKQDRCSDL

Nc1c2c(nc3nc(-c4ccccc4)cc(C(F)(F)F)c13)CCCCCC2
IC50 [1]: 7.69 µM

Nc1cc(-c2cccc(F)c2)nc2nc(-c3ccccc3)cc(C(F)(F)F)c12
IC50 [1]: 7.03 µM

Nc1c2c(nc3nc(-c4ccccc4)cc(C(F)(F)F)c13)CCCC2
IC50 [1]: 0.35 µM

COc1ccc(-c2cc(N)c3c(C(F)(F)F)cc(-c4ccccc4)nc3n2)cc1
IC50 [1]: 8.24 µM

CC1CCc2nc3nc(-c4ccccc4)cc(C(F)(F)F)c3c(N)c2C1 (centres undefined)
IC50 [1]: 0.51 µM

Nc1c2c(nc3nc(-c4ccccc4)cc(C(F)(F)F)c13)-c1ccccc1C2
IC50 [1]: 17.6 µM

Nc1cc(-c2ccc(Cl)cc2)nc2nc(-c3ccccc3)cc(C(F)(F)F)c12
viability at 48 h, 10 µM [2]: 84.2%
viability at 48 h, 1 µM [3]: 98.1%
Activity [4]: 16%
viability at 48 h, 0.5 µM [5]: 97.1%
IC50 [1]: 0.52 µM

Nc1cc(-c2cccs2)nc2nc(-c3ccccc3)cc(C(F)(F)F)c12
IC50 [1]: 10.4 µM

Nc1cc(-c2ccccc2)nc2nc(-c3ccccc3)cc(C(F)(F)F)c12
IC50 [1]: 7.1 µM

Nc1cc(-c2ccccc2Br)nc2nc(-c3ccccc3)cc(C(F)(F)F)c12
viability at 48 h, 10 µM [2]: 99.9%
viability at 48 h, 1 µM [3]: 95.9%
viability at 48 h, 0.5 µM [5]: 98.7%
IC50 [1]: 0.89 µM

Nc1cc(-c2ccc(F)cc2)nc2nc(-c3ccccc3)cc(C(F)(F)F)c12
IC50 [1]: 6.58 µM

Nc1c2c(nc3nc(-c4ccccc4)cc(C(F)(F)F)c13)CCC2
IC50 [1]: 8.05 µM

CC1CCc2c(nc3nc(-c4ccccc4)cc(C(F)(F)F)c3c2N)C1 (centres undefined)
IC50 [1]: 3.25 µM

CC1Cc2nc3nc(-c4ccccc4)cc(C(F)(F)F)c3c(N)c2C1 (centres undefined)
IC50 [1]: 9.37 µM

Nc1c2c(nc3nc(-c4ccccc4)cc(C(F)(F)F)c13)-c1ccccc1CC2
IC50 [1]: 23.1 µM

Nc1c2c(nc3nc(-c4ccccc4)cc(C(F)(F)F)c13)CCCCC2
IC50 [1]: 10.1 µM

CC(C)Cc1cc(N)c2c(C(F)(F)F)cc(-c3ccccc3)nc2n1
IC50 [1]: 19.1 µM
